Assay results published in patent publication US20250236603A1, “SOLID FORMS OF ALECTINIB AND ALECTINIB SALTS” (Synthon B.V., priority 2022, published 2025).
Where two headings read alike, the source gives them in different places.

Legend:
[1] = Solubilities of prepared salts (buffer pH 1.2 with 4% Triton X-100, HPLC); settings: 100 rpm
Method: (§1) 20 mg of the Alectinib salt was mixed 10 ml of a mixture of buffer pH 1.2 and 4% Triton X-100. The mixture was placed into a stirring carousel at temperature +37° C. and 100 rpm. After 1 hour and 4 hours about 1 mL of each sample was taken and filtered through a 0.45 μm filter into a vial. Then each sample was diluted with Solvent solution to get signal of absorbance ≤1 at 265 nm, transferred into a vial and measured by HPLC method.
(§2) 20 mg of the Alectinib salt was mixed 10 ml of a mixture of buffer pH 1.2 and 4% Triton X-100. The mixture was placed into a stirring carousel at temperature+37° C. and 100 rpm. After 1 hour and 4 hours about 1 mL of each sample was taken and filtered through a 0.45 μm filter into a vial. Then each sample was diluted with Solvent solution to get signal of absorbance≤1 at 265 nm, transferred into a vial and measured by HPLC method.

[2] = pH 1.2
Method: as §1, §2

[3] = Example 18, 20 mg salt in 10 ml buffer pH 1.2 and 4% Triton X-100, +37° C.
[4] = Example 18, 20 mg salt in 10 ml buffer pH 1.2 and 4% Triton X-100, +37° C., maleate salt
[5] = Example 10, 20 mg salt in 10 ml buffer pH 1.2 and 4% Triton X-100, +37° C.
[6] = Example 28, 20 mg salt in 10 ml buffer pH 1.2 and 4% Triton X-100, +37° C.
[7] = Example 10, 20 mg salt in 10 ml buffer pH 1.2 and 4% Triton X-100, +37° C., acetate salt

| Molecule | Solubility after 1 hour [1, 3] [µg/mL] | Solubility after 1 hour [2] [µg/mL] | other results |
| --- | --- | --- | --- |
| CCc1cc2c(cc1N1CCC(N3CCOCC3)CC1)C(C)(C)c1[nH]c3cc(C#N)ccc3c1C2=O.O=C(O)C=CC(=O)O [Fumaric acid (1:1) salt, Form 2, Alectinib fumaric acid (1:1) salt] | 1300 |  |  |
| CCc1cc2c(cc1N1CCC(N3CCOCC3)CC1)C(C)(C)c1[nH]c3cc(C#N)ccc3c1C2=O.CS(=O)(=O)O [Methane sulfonate salt, Form 3, Alectinib methane sulfonate salt] |  | 1210 |  |
| CCc1cc2c(cc1N1CCC(N3CCOCC3)CC1)C(C)(C)c1[nH]c3cc(C#N)ccc3c1C2=O.CS(=O)(=O)O [Methane sulfonate salt, Form 15, Alectinib methane sulfonate salt] |  | 1190 |  |
| CCc1cc2c(cc1N1CCC(N3CCOCC3)CC1)C(C)(C)c1[nH]c3cc(C#N)ccc3c1C2=O.CS(=O)(=O)O [Methane sulfonate salt, Form 13, Alectinib methane sulfonate salt] |  | 1300 |  |
| Alectinib tartrate salt [Tartrate, Form 8] | 1230 |  |  |
| CCc1cc2c(cc1N1CCC(N3CCOCC3)CC1)C(C)(C)c1[nH]c3cc(C#N)ccc3c1C2=O.CCc1cc2c(cc1N1CCC(N3CCOCC3)CC1)C(C)(C)c1[nH]c3cc(C#N)ccc3c1C2=O.O=C(O)C=CC(=O)O [Fumaric acid (2:1) salt, Form 2, Alectinib fumaric acid (2:1) salt] | 1230 |  |  |
| CCc1cc2c(cc1N1CCC(N3CCOCC3)CC1)C(C)(C)c1[nH]c3cc(C#N)ccc3c1C2=O.O=C(O)C=CC(=O)O [Hydrogen maleate salt, Form 1, Alectinib hydrogen maleate salt] |  |  | Solubility after 1 hour [1, 4]: 2380 µg/mL |
| CCc1cc2c(cc1N1CCC(N3CCOCC3)CC1)C(C)(C)c1[nH]c3cc(C#N)ccc3c1C2=O.Cl [HCl, reference compound] | 370 |  | Solubility after 1 hour [1, 5]: 370 µg/mL; Solubility after 1 hour [1, 6]: 370 µg/mL |
| CCc1cc2c(cc1N1CCC(N3CCOCC3)CC1)C(C)(C)c1[nH]c3cc(C#N)ccc3c1C2=O.CS(=O)(=O)O [Methane sulfonate salt, Form 14, Alectinib methane sulfonate salt] |  | 1320 |  |
| Alectinib acetate salt [Acetate, Form 2] |  |  | Solubility after 1 hour [1, 7]: 870 µg/mL |
| CCc1cc2c(cc1N1CCC(N3CCOCC3)CC1)C(C)(C)c1[nH]c3cc(C#N)ccc3c1C2=O.O=C(O)C=CC(=O)O [Hydrogen maleate salt, Form 2, Alectinib hydrogen maleate salt] |  |  | Solubility after 1 hour [1, 4]: 1260 µg/mL |
| Alectinib acetate salt [Acetate, Form 4] |  |  | Solubility after 1 hour [1, 7]: 1220 µg/mL |
| CCc1cc2c(cc1N1CCC(N3CCOCC3)CC1)C(C)(C)c1[nH]c3cc(C#N)ccc3c1C2=O.O=C(O)C=CC(=O)O [Fumaric acid (1:1) salt, Form 6, Alectinib fumaric acid (1:1) salt] | 1220 |  |  |
| CCc1cc2c(cc1N1CCC(N3CCOCC3)CC1)C(C)(C)c1[nH]c3cc(C#N)ccc3c1C2=O.CS(=O)(=O)O [Methane sulfonate salt, Form 12, Alectinib methane sulfonate salt] |  | 1350 |  |
| Tosylate [reference compound] | 500 |  | Solubility after 1 hour [1, 5]: 500 µg/mL; Solubility after 1 hour [1, 6]: 500 µg/mL |
